# Measured values taken from patent US6387881B1, “Inhibitors and substrates of thrombin” (priority 1992, dated 2002).
# Values joined by “and” are separate entries in the source; they are usually repeats but may differ in a detail not shown here. Equal values may be shown once. Read-outs that look alike come from different tables or passages of the source.
# Assays:
# human α-thrombin = human α-thrombin (Homo sapiens, UniProt P00734); experiment: biochemical; type: biochemical
# Description: The inhibition of human α-thrombin was determined by the inhibition of the enzyme catalyzed hydrolysis of three different concentrations of the chromogenic substrate S-2238.
# 200 μl of sample or buffer and 50 μl of S-2238 were incubated at 37° C. for 1 min and 50 μl of human α-thrombin (0.25 NIHu/ml) was added. The initial rate of inhibited and uninhibited reactions were recorded at 405 nm. The increase in optical density was plotted according to the method of Lineweaver and Burke. The Km and apparent Km were determined and Ki was calculated using the relationship: [formula]
# [1] = IC50 with and without incubation (enzyme not given); type: biochemical
# [2] = tested on: 111indium-labelled platelets; experiment: Deposition of 111indium-labelled platelets after intravenous dose; type: in vivo, New Zealand white rabbits
# Description: M. Hero, K. D. Butler, C. […] Peripheral blood pressure was monitored by a pressure sensor in the carotid artery.
# [3] = Peripheral blood pressure after intravenous dose; type: in vivo, New Zealand white rabbits
# Description: […] R. May, C. M. Hero, K. D. Butler, C. P. Page, JOURNAL OF PHARMACOLOGICAL METHODS, 24, pp 1-35, 1990. Peripheral blood pressure was monitored by a pressure sensor in the carotid artery.
# Plasmin = Plasmin (Homo sapiens, UniProt P00747); experiment: IC50 against plasmin; type: biochemical
# Sequence of Plasmin (P00747 97-580 limits assumed, species assumed): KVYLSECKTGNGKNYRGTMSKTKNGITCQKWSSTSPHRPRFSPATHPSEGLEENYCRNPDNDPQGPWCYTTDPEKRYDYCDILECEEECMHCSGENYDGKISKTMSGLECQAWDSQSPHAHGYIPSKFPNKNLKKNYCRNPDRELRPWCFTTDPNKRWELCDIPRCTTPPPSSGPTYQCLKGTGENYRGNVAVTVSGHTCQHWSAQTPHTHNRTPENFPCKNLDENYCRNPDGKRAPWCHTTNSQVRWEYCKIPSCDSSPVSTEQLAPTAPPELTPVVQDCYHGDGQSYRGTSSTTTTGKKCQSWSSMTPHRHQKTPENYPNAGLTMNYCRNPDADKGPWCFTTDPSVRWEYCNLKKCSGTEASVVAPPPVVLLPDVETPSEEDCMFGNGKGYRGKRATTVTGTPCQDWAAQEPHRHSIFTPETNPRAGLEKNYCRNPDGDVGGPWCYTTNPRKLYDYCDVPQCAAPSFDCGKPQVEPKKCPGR
# Sequence of Plasmin (P00747 581-810 limits assumed, species assumed): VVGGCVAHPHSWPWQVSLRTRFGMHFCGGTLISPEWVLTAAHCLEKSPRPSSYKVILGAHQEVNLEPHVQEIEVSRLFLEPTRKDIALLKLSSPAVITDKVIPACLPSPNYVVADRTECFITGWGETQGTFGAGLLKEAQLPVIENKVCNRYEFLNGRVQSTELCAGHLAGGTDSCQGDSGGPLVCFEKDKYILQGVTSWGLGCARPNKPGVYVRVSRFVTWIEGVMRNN
# Xa = molecular target: T1, Xa (Homo sapiens, UniProt P00742); experiment: IC50 against Xa; type: biochemical
# T1 construct: Plasmin; Xa; Urokinase
# T1 sequence (P00742 41-179 limits assumed): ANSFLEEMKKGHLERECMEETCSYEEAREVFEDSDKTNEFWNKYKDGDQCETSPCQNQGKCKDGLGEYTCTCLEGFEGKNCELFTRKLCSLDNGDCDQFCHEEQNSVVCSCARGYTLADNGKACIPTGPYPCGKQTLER
# T1 sequence (P00742 235-488 limits assumed): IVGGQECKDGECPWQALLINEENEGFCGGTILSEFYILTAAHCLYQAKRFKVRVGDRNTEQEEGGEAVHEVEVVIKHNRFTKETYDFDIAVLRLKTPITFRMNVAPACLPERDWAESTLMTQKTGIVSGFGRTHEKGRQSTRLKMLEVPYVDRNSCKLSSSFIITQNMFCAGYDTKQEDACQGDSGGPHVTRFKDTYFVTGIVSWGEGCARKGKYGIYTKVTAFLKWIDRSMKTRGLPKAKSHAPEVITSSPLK
# Urokinase = Urokinase (Homo sapiens, UniProt P00749); experiment: IC50 against urokinase; type: biochemical
# Kalhikrein = experiment: IC50 against kallikrein; type: biochemical
# [4] = tested on: bovine thrombin in plasma samples; experiment: Ex-vivo TT; type: in vivo, New Zealand white rabbits; parameters: key: thrombin (coagulation) time in seconds; conditions: 1 mg/kg i.v. bolus, rabbit
# Description: A volume of 150 μl of citrated normal human plasma and 20 μl of buffer or sample were warmed at 37° C. for 1 min. Coagulation was started by adding 150 ul of freshly prepared bovine thrombin (5 NIHu/ml saline) and the coagulation time was recorded on a coagulometer.
# A phosphate buffer, pH 7.8, containing 0.1% bovine serum albumine and 0.02% sodium azide was used. The samples were dissolved in DMSO and diluted with the buffer. When no inhibitor was used DMSO was added to the buffer to the same concentration as that used in the samples. The inhibitor concentrations were plotted against the thrombin times in a semilogarithmic graph from which the inhibitor concentration that caused a doubling (40 sec) of the thrombin time was determined.
# (§1) Data was obtained as for in-vitro tests, but using plasma samples obtained at 0, 1, 10, 30 and 60 minutes after dosing of 1 mg/kg, i.v. bolus injection in a marginal ear vein in New Zealand white rabbits, which were anaesthetized from a canula in the carotid artery. [drawing 18]
# plasma samples = experiment: Ex-vivo APTT; type: in vivo, New Zealand white rabbits; parameters: unit not given here; conditions: 1 mg/kg i.v. bolus, rabbit
# Description: A volume of 150 μl of citrated (3.2%) normal human plasma was incubated at 37° C. with sample (20 μl) or buffer (20 μl, control) for 1 min. To the solution was added reconstituted “AUTOMATED APTT” (available from Organon Teknika, 0.1 ml). Each solution was activated at 37° C. for 5 min.
# After activation, calcium chloride (0.1 ml, 0.025M, prewarmed at 37° C.) was added and clot detection was timed using a “semiautomated coagulometer” (Nach, Schnicter und Gross).
# as §1
# [5] = human α-thrombin, S-2238, 37° C., read-out: Ki
# [6] = no incubation, read-out: IC50 No Incubations
# [7] = with incubation, read-out: IC50 Inc.
# [8] = single value given, incubation not given, read-out: Plasmin no inc/inc
# [9] = single value given, incubation not given, read-out: Xa no inc/inc
# [10] = single value given, incubation not given, read-out: Urokinase no inc/inc
# [11] = single value given, incubation not given, read-out: Kalhikrein no inc/inc
Compound,Ki (human α-thrombin; [5]),"IC50 [1, 6]","IC50 [1, 7]",IC50 (Plasmin; [8]),IC50 (Xa; [9]),IC50 (Urokinase; [10]),IC50 (Kalhikrein; [11]),also measured
"CC(C)(C)OC(=O)NC(C(=O)N1CCCC1C(=O)NC(c1ccccc1)P(=O)(O)O)C(c1ccccc1)c1ccccc1 [Compound 15, Boc-D,L-Dpa-Pro-Pgl^P(OH)2]",59000 nM,5280 nM,83.6 nM,,,,,
"CCCCCC(NC(=O)[C@@H]1CCCN1C(=O)[C@H](N)C(c1ccccc1)c1ccccc1)P(=O)(Oc1ccccc1)Oc1ccccc1 (stereo partly drawn) [Compound 23, D-Dpa-Pro-Pgl^P(OPh)2]",480 nM,187 nM,0.938 nM,,,,,
"NC(C(=O)N1CCCC1C(=O)NC(c1ccccc1)P(=O)(O)O)C(c1ccccc1)c1ccccc1 [Compound 16, D,L-Dpa-Pro-Pgl^P(OH)2]",223 nM,5160 nM,81.7 nM,,,,,
"CCCCCC(NC(=O)[C@@H]1CCCN1C(=O)[C@H](N)C(c1ccccc1)c1ccccc1)P(=O)(O)O (stereo partly drawn) [Compound 18, D-Dpa-Pro-Pgl^P(OH)2]",15100 nM,148000 nM,751 nM,,,,,
"CC1(C)OB(C(Cc2ccccc2)NC(=O)C2CCCN2C(=O)C(Cc2ccccc2)NC(=O)OCc2ccccc2)OC1(C)C [Compound 41, Z-D-Phe-Pro-BoroPhe-OPinac]",,12.8 nM,,37300 nM,7940 nM,6670 nM,16700 nM,PLATELET ACCUMULATION (% OF NORMAL) LEG ([2]; 4 mg/kg iv. dose): NONE; PLATELET ACCUMULATION (% OF NORMAL) LUNG ([2]; 4 mg/kg iv. dose): NONE; BLOOD PRESSURE Δ% of NORM ([3]; 4 mg/kg iv. dose): 21% Δ% of NORM
"COCCCC(NC(=O)[C@@H]1CCCN1C(=O)[C@H](N)Cc1ccccc1)P(=O)(Oc1ccccc1)Oc1ccccc1 (stereo partly drawn) [Compound 40, H-D-Phe-Pro-Mpg^P(OPh)2]",,16600 nM,11.8 nM,,,,,"Ki (human α-thrombin; read-out: Ki): 18.8 nM; IC50 (Plasmin; no incubation (first value of cell), read-out: Plasmin no inc): > 20900 nM; IC50 (Xa; no incubation (first value of cell), read-out: Xa no inc): > 20900 nM; IC50 (Xa; with incubation (second value of cell), read-out: Xa inc): > 20900 nM; IC50 (Urokinase; no incubation (first value of cell), read-out: Urokinase no inc): > 20900 nM; IC50 (Urokinase; with incubation (second value of cell), read-out: Urokinase inc): > 20900 nM; IC50 (Kalhikrein; no incubation (first value of cell), read-out: Kalhikrein no inc): > 20900 nM; IC50 (Kalhikrein; with incubation (second value of cell), read-out: Kalhikrein inc): > 20900 nM"
"CCCCCC(NC(=O)C1CCCN1C(=O)C(N)Cc1ccccc1)P(=O)(Oc1ccccc1)Oc1ccccc1 [Compound 20, D-Phe-Pro-Pgl^P(OPh)2]",,,,,,,,Ki (human α-thrombin): 109 nM; PLATELET ACCUMULATION (% OF NORMAL) LEG ([2]; 1 mg/kg i.v. dose): NONE; PLATELET ACCUMULATION (% OF NORMAL) LUNG ([2]; 1 mg/kg i.v. dose): NONE; BLOOD PRESSURE Δ% of NORM ([3]; 1 mg/kg i.v. dose): NONE
"CCCCCC(NC(=O)[C@@H]1CCCN1C(=O)[C@@H](Cc1ccccc1)NC(=O)OCc1ccccc1)B1OC(C)(C)C(C)(C)O1 (stereo partly drawn) [Compound 11, Z-D-Phe-Pro-BoroPgl-OPinac]",,,,,,,,EX-VIVO T.T. ([4]; time 0 min): 30 and 24.5 and 26; EX-VIVO T.T. ([4]; time 1 min): >300 and >200; EX-VIVO T.T. ([4]; time 10 min): >300 and >200; EX-VIVO A.P.T.T. (plasma samples; time 0 min): 46.5 and 26.4; EX-VIVO A.P.T.T. (plasma samples; time 60 min): 53.0 and 38.4
Z-D-Phe-Pro-BoroMbg-OPin [Compound 59],,,,,,,,PLATELET ACCUMULATION (% OF NORMAL) LEG ([2]; 1 mg/kg i.v. dose): NONE; PLATELET ACCUMULATION (% OF NORMAL) LUNG ([2]; 1 mg/kg i.v. dose): NONE; BLOOD PRESSURE Δ% of NORM ([3]; 1 mg/kg i.v. dose): NONE; EX-VIVO T.T. ([4]; time 0 min): 28.9 and 22.5 and 22.4 and 23.5; EX-VIVO T.T. ([4]; time 1 min): 111 and 106 and 171.5 and 168.5; EX-VIVO T.T. ([4]; time 10 min): 35.9 and 34 and 37.9 and 38.4; EX-VIVO T.T. ([4]; time 30 min): 29 and 30 and 32 and 31; EX-VIVO T.T. ([4]; time 60 min): 28.4 and 28.5 and 27.9 and 28; EX-VIVO A.P.T.T. (plasma samples; time 0 min): 42 and 59.5 and 43.9 and 58; EX-VIVO A.P.T.T. (plasma samples; time 1 min): 111.4 and 111 and 102.9 and 126; EX-VIVO A.P.T.T. (plasma samples; time 10 min): 48.9 and 53 and 60.5 and 67; EX-VIVO A.P.T.T. (plasma samples; time 30 min): 34.9 and 49 and 59 and 53.9; EX-VIVO A.P.T.T. (plasma samples; time 60 min): 40.4 and 48.4 and 65.5 and 62
Bzl-Pros-Pro-BoroIrg-Opin [Compound 44],,1300 nM,,153 nM,512 nM,121 nM,1080 nM,
"O=C(NC(C(=O)N1CCCC1C(=O)NC(c1ccccc1)P(=O)(Oc1ccccc1)Oc1ccccc1)C(c1ccccc1)c1ccccc1)OCc1ccccc1 [Compound 17, Z-D-Dpa-Pro-Pgl^P(OPh)2]",8460 nM,,,,,,,
"CC1(C)C2CC3OB(C(CCCSC(=N)N)NC(=O)C4CCCN4C(=O)C(Cc4ccccc4)NC(=O)OCc4ccccc4)OC3(C)C1C2 [Compound 25, Z-D-Phe-Pro-BoroIrg-OPin]",,1500 nM,68 nM,8.4 nM,14.1 nM,75 nM,334 nM,BLOOD PRESSURE Δ% of NORM ([3]; 1 mg/kg i.v. dose): SMALL; BLOOD PRESSURE Δ% of NORM ([3]; 4 mg/kg iv. dose): 100% Δ% of NORM
"CCC(C)CC(NC(=O)[C@@H]1CCCN1C(=O)[C@@H](Cc1ccccc1)NC(=O)OCc1ccccc1)B1OC2CC3CC(C3(C)C)C2(C)O1 (stereo partly drawn) [Compound 22, Z-D-Phe-Pro-BoroMbg-OPin]",,7 nM,,11500 nM,3860 nM,9130 nM,12900 nM,"PLATELET ACCUMULATION (% OF NORMAL) LEG ([2]; 4 mg/kg iv. dose): 11%, TRANSIENT % OF NORMAL; PLATELET ACCUMULATION (% OF NORMAL) LUNG ([2]; 4 mg/kg iv. dose): NONE; BLOOD PRESSURE Δ% of NORM ([3]; 4 mg/kg iv. dose): 0 Δ% of NORM"
"COCCCC(NC(=O)C1CCCN1C(=O)C(Cc1ccccc1)NC(=O)OCc1ccccc1)B1OC2CC3CC(C3(C)C)C2(C)O1 [Compound 50, Z-D-Phe-Pro-BoroMpg-OPin]",,0.7 nM,,3230 nM,1720 nM,3630 nM,7260 nM,
"CCCCCC(NC(=O)C1CCCN1C(=O)C(Cc1ccccc1)NC(=O)OCc1ccccc1)P(=O)(Oc1ccccc1)Oc1ccccc1 [Compound 19, Z-D-Phe-Pro-Pgl^P(OPh)2]",,,,,,,,Ki (human α-thrombin): > 31000 nM
"CCCCCC(NC(=O)[C@@H]1CCCN1C(=O)[C@H](N)Cc1ccccc1)P(=O)(O)O (stereo partly drawn) [Compound 21, D-Phe-Pro-Pgl^P(OH)2]",,> 137000 nM,4350 nM,,,,,Ki (human α-thrombin; read-out: Ki): > 98000 nM
